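Tested at 5 concentrations; 48 h exposure; 96-well plates; endpoints linearly interpolated, else capped at highest concentration. GI50: concentration for 50% inhibition of growth.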 Calls of active or inactive are those of the source. No stated cut-off is given here; in the data, active = GI50 up to about 1.1 µM and inactive = higher.
Tests used:
Assay in all cases: inhibition of tumour cell growth, NCI panel, 48 h
786-0 = system: 786-0
A549 = system: A549
CAKI-1 = system: CAKI-1
COLO 205 = system: COLO 205
DLD-1 = system: DLD-1
DMS-114 = system: DMS-114
DMS-273 = system: DMS-273
EKVX = system: EKVX
HCC 2998 = system: HCC 2998
HCT-116 = system: HCT-116
HCT-15 = system: HCT-15
HOP-18 = system: HOP-18
HOP-92 = system: HOP-92
HT-29 = system: HT-29
IGROV-1 = system: IGROV-1
K562 = system: K562
KM-20L2 = system: KM-20L2
KM12 = system: KM12
LXFL 529 = system: LXFL 529
M19-MEL = system: M19-MEL
MOLT-4 = system: MOLT-4
Malme-3M = system: Malme-3M
NCI-H226 = system: NCI-H226
NCI-H23 = system: NCI-H23
NCI-H460 = system: NCI-H460
NCI-H522 = system: NCI-H522
OVCAR-3 = system: OVCAR-3
OVCAR-4 = system: OVCAR-4
OVCAR-5 = system: OVCAR-5
OVCAR-8 = system: OVCAR-8
RPMI-8226 = system: RPMI-8226
RXF 393 = system: RXF 393
SF-295 = system: SF-295
SF-539 = system: SF-539
SK-MEL-28 = system: SK-MEL-28
SK-MEL-2 = system: SK-MEL-2
SK-MEL-5 = system: SK-MEL-5
SK-OV-3 = system: SK-OV-3
SN12C = system: SN12C
SNB-19 = system: SNB-19
SNB-75 = system: SNB-75
SNB-78 = system: SNB-78
SR = system: SR
SW-620 = system: SW-620
TK-10 = system: TK-10
U-251 = system: U-251
UACC-257 = system: UACC-257
UACC-62 = system: UACC-62
UO-31 = system: UO-31
XF498 = system: XF498
A498 = system: A498
ACHN = system: ACHN
CCRF-CEM = system: CCRF-CEM
HL-60 = system: HL-60
HOP-62 = system: HOP-62
LOX IMVI = system: LOX IMVI
M14 = system: M14
SF-268 = system: SF-268

## CC(=O)OC1CCn2nnc(CO)c21 (configuration not stated)
786-0
  GI50: > 100 µM (inactive)
A549
  GI50: > 100 µM (inactive)
CAKI-1
  GI50: > 100 µM (inactive)
COLO 205
  GI50: > 100 µM (inactive)
DLD-1
  GI50: > 100 µM (inactive)
DMS-114
  GI50: > 100 µM (inactive)
DMS-273
  GI50: > 100 µM (inactive)
EKVX
  GI50: > 100 µM (inactive)
HCC 2998
  GI50: > 100 µM (inactive)
HCT-116
  GI50: > 100 µM (inactive)
HCT-15
  GI50: > 100 µM
HOP-18
  GI50: > 100 µM (inactive)
HOP-92
  GI50: > 100 µM (inactive)
HT-29
  GI50: > 100 µM (inactive)
IGROV-1
  GI50: > 100 µM (inactive)
K562
  GI50: > 100 µM (inactive)
KM-20L2
  GI50: > 100 µM (inactive)
KM12
  GI50: > 100 µM (inactive)
LXFL 529
  GI50: > 100 µM (inactive)
M19-MEL
  GI50: > 100 µM (inactive)
MOLT-4
  GI50: > 100 µM (inactive)
Malme-3M
  GI50: > 100 µM (inactive)
NCI-H226
  GI50: > 100 µM (inactive)
NCI-H23
  GI50: > 100 µM (inactive)
NCI-H460
  GI50: > 100 µM (inactive)
NCI-H522
  GI50: > 100 µM (inactive)
OVCAR-3
  GI50: > 100 µM (inactive)
OVCAR-4
  GI50: > 100 µM (inactive)
OVCAR-5
  GI50: > 100 µM (inactive)
OVCAR-8
  GI50: > 100 µM (inactive)
RPMI-8226
  GI50: > 100 µM (inactive)
RXF 393
  GI50: > 100 µM (inactive)
SF-295
  GI50: > 100 µM (inactive)
SF-539
  GI50: 58.5 µM (inactive)
SK-MEL-28
  GI50: > 100 µM (inactive)
SK-MEL-2
  GI50: > 100 µM (inactive)
SK-MEL-5
  GI50: > 100 µM (inactive)
SK-OV-3
  GI50: > 100 µM (inactive)
SN12C
  GI50: > 100 µM (inactive)
SNB-19
  GI50: > 100 µM (inactive)
SNB-75
  GI50: 23.8 µM (inactive)
SNB-78
  GI50: > 100 µM (inactive)
SR
  GI50: > 100 µM (inactive)
SW-620
  GI50: > 100 µM (inactive)
TK-10
  GI50: > 100 µM (inactive)
U-251
  GI50: > 100 µM (inactive)
UACC-257
  GI50: > 100 µM (inactive)
UACC-62
  GI50: > 100 µM (inactive)
UO-31
  GI50: > 100 µM (inactive)
XF498
  GI50: > 100 µM (inactive)

## COc1cc2c(oc(=O)c3c4oc([Si](C)(C)C)cc4cc(OC)c23)c2cccc(OCc3ccccc3)c12
786-0
  GI50: 19.1 µM (inactive)
A498
  GI50: 31.4 µM (inactive)
A549
  GI50: 44 µM (inactive)
ACHN
  GI50: 51.4 µM (inactive)
CAKI-1
  GI50: 21.4 µM (inactive)
CCRF-CEM
  GI50: 48.3 µM (inactive)
COLO 205
  GI50: 54.2 µM (inactive)
DLD-1
  GI50: 55 µM (inactive)
DMS-114
  GI50: 50.6 µM (inactive)
DMS-273
  GI50: 25.3 µM (inactive)
EKVX
  GI50: > 66.5 µM (inactive)
HCC 2998
  GI50: > 64.3 µM (inactive)
HCT-116
  GI50: 43.2 µM (inactive)
HCT-15
  GI50: > 70.5 µM
HL-60
  GI50: 43.3 µM (inactive)
HOP-18
  GI50: 28 µM (inactive)
HOP-62
  GI50: 18.8 µM (inactive)
HOP-92
  GI50: 34.8 µM (inactive)
HT-29
  GI50: 48.9 µM (inactive)
IGROV-1
  GI50: 50.5 µM (inactive)
K562
  GI50: 57 µM (inactive)
KM-20L2
  GI50: > 66.1 µM (inactive)
KM12
  GI50: > 64.3 µM (inactive)
LOX IMVI
  GI50: 44 µM (inactive)
LXFL 529
  GI50: 27.2 µM (inactive)
M14
  GI50: 26.3 µM (inactive)
M19-MEL
  GI50: 48.2 µM (inactive)
MOLT-4
  GI50: > 71.9 µM (inactive)
Malme-3M
  GI50: 32.1 µM (inactive)
NCI-H226
  GI50: 42.5 µM (inactive)
NCI-H23
  GI50: 16.3 µM (inactive)
NCI-H460
  GI50: 53.7 µM (inactive)
NCI-H522
  GI50: 36.4 µM (inactive)
OVCAR-3
  GI50: 34.8 µM (inactive)
OVCAR-4
  GI50: 33.1 µM (inactive)
OVCAR-5
  GI50: > 70.3 µM (inactive)
OVCAR-8
  GI50: 38.5 µM (inactive)
RPMI-8226
  GI50: 28.4 µM (inactive)
RXF 393
  GI50: > 33.5 µM (inactive)
SF-268
  GI50: 26.5 µM (inactive)
SF-295
  GI50: 19 µM (inactive)
SF-539
  GI50: 20.7 µM (inactive)
SK-MEL-28
  GI50: 38.3 µM (inactive)
SK-MEL-2
  GI50: 33.7 µM (inactive)
SK-MEL-5
  GI50: 38 µM (inactive)
SK-OV-3
  GI50: 38.3 µM (inactive)
SN12C
  GI50: > 100 µM (inactive)
SNB-19
  GI50: 23.8 µM (inactive)
SNB-75
  GI50: 19.7 µM (inactive)
SNB-78
  GI50: 17 µM (inactive)
SR
  GI50: 37.7 µM (inactive)
SW-620
  GI50: 68.9 µM (inactive)
TK-10
  GI50: 37.2 µM (inactive)
UACC-257
  GI50: 47.6 µM (inactive)
UACC-62
  GI50: 17.4 µM (inactive)
UO-31
  GI50: > 63.7 µM (inactive)
XF498
  GI50: 8.32 µM (inactive)
